Data on 4 compounds can be found in US7576109B2, “1,3,4-oxadiazol-2-ones as PPAR delta modulators and their use thereof” (Aventis Pharmaceuticals Inc., priority 2004, dated 2009).

For this assay, the system named is rat oligodendrocyte cultures. The experiment in a line: Primary rat oligodendrocyte differentiation assay (myelin basic protein expression). Type of assay: cell-based. As to conditions: primary rat oligodendrocytes, compared to untreated controls. From the text:
• 1. Primary rat oligodendrocyte progenitor cells are obtained from the neocortex of newborn (postnatal days 2-3) rats or mice and are enriched, after removal of microglia, by mechanical separation from the astrocytic monolayer using a modification of the technique originally described by McCarthy and de Vellis (1980). • 2. Remove the meninges from neonatal rat brain and mechanically dissociate tissue. Plate cells on T75 flasks and feed cells with DMEM/F12+10% FBS. • 3. Collect oligodendrocytes growing on the astrocyte bed layer by shaking-off method fourteen days after the original prep date. Centrifuge the suspension and resuspend the cell pellet in serum free media (SFM; DMEM combined with 25 μg/ml transferring, 30 nM triiodothyronine, 20 nM hydrocortisone, 20 nM progesterone, 10 nM biotin, 1× trace elements, 30 nM selenium, 1 μg/ml putrescine, 0.1% BSA, 5 U/ml PenStrep, 10 μg/ml insulin) supplemented with the following growth factors: Platelet derived growth factor-AA (PDGF) and fibroblast growth factor-2 (FGF). • 4. Plate the cells on PDL-coated dishes and incubate at 37° C. with 6-7% CO2. • 5. Media components are replaced every 48 hr to keep the cells in a progenitor state. Progenitor Cell Passaging to Increase Cell Numbers for Screening Assays: • 1. When the culture are confluent, rinse the culture with PBS, add trypsin and incubate for ˜2-3 min at 37° C. • 2. Neutralize and centrifuge the cell suspension at 900 g for 5 min. • 3. Resuspend the cell pellet in SFM+PDGF/FGF. • 4. Feed the cells with fresh growth factors every 48 hrs to keep enrich for rapidly dividing progenitor cells. • 5. Cells are passaged no more than 4-5 times prior to experimental assays. • 6. All experiments involving oligodendrocyte progenitor cells were done using cells that were continuously maintained under these conditions. Greater than 95% of all cells were A2B5 immunopositive and expressed 2′3′-cyclic nucleotide 3′-phosphodiesterase II mRNA. • 7. To generate mature oligodendrocytes, 24 h after plating progenitor cells were switched to SFM supplemented with or without IGF-I and grown under these conditions for 7 d prior to experimental assays. • 8. Alternatively, the enriched rat Central Glia-4 (CG4) progenitor cell line may be used, which is maintained in base media (DMEM, with 2 mM glutamine, 1 mM sodium pyruvate, biotin (40 nM), insulin (1 μM) and N1) supplemented with 30% conditioned media from the B-104 neuroblastoma cell line. To induce differentiation, CG4 cells are switched to base media with 1% fetal calf serum (removed after 2 days) and insulin (500 nM). A2B5 and MBP immunoreactivity is used to confirm >95% enrichment in immature and mature cultures, respectively. Rat/Mouse Culture Compound Treatment: • 1. […]

On to `Cc1nc(-c2ccc(C(F)(F)F)cc2)sc1COc1ccc(-c2n[nH]c(=O)o2)cc1` [Example 10, 5-{4-[4-Methyl-2-(4-trifluoromethyl-phenyl)-thiazol-5-ylmethoxy]-phenyl}-3H-[1,3,4]oxadiazol-2-one], for which, where the note is “concentration 10 μM”, the “Fold Increase in Myelin Basic Protein Expression in Oligodendrocyte Differentiation Assay” value is given as 1.5 fold (10).
For `Cc1nc(-c2ccc(C(F)(F)F)cc2)sc1COCc1ccc(-c2n[nH]c(=O)o2)cc1` [Example 14], the “Fold Increase in Myelin Basic Protein Expression in Oligodendrocyte Differentiation Assay” value (concentration 1 μM) is given as 1.5 fold (1).
Still for that read-out and setting: the same measure for `CCCCc1nc(-c2ccc(C(F)(F)F)cc2)sc1COc1ccc(-c2n[nH]c(=O)o2)c(Cl)c1` [Example 23]: 2 fold (1); for `CCCCc1nc(-c2ccc(C(F)(F)F)cc2)sc1COc1ccc(Cc2n[nH]c(=O)o2)cc1` [Example 31, 5-{4-[4-Butyl-2-(4-trifluoromethyl-phenyl)-thiazol-5-ylmethoxy]-benzyl}-3H-[1,3,4]oxadiazol-2-one]: 2 fold (1).
